Source: ChEMBL document CHEMBL1201862, “PubChem BioAssay data set” (2004)
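1) Cells in 96-well plates. 2) Compound, 48 h, 5 concentrations. 3) Linear interpolation between surrounding doses. 4) Unreached endpoint = highest concentration. At the GI50, growth is halved.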 Activity calls are given as the source filed them. Rule as the data show it: active = GI50 up to about 1.1 µM and inactive = higher.

What was measured:
Assay in all cases: DTP human tumour cell line panel, 48 h
BT-549 = test system: BT-549
CCRF-CEM = test system: CCRF-CEM
COLO 205 = test system: COLO 205
EKVX = test system: EKVX
HCT-116 = test system: HCT-116
HCT-15 = test system: HCT-15
HL-60 = test system: HL-60
KM12 = test system: KM12
MCF7 = test system: MCF7
MOLT-4 = test system: MOLT-4
NCI-H226 = test system: NCI-H226
OVCAR-4 = test system: OVCAR-4
OVCAR-8 = test system: OVCAR-8
PC-3 = test system: PC-3
SF-539 = test system: SF-539
SN12C = test system: SN12C
SR = test system: SR
UACC-257 = test system: UACC-257
OVCAR-5 = test system: OVCAR-5

| SMILES | GI50 (BT-549) | GI50 (CCRF-CEM) | GI50 (COLO 205) | GI50 (EKVX) | GI50 (HCT-116) | GI50 (HCT-15) | GI50 (HL-60) | GI50 (KM12) | GI50 (MCF7) | GI50 (MOLT-4) | GI50 (NCI-H226) | GI50 (OVCAR-4) | GI50 (OVCAR-8) | GI50 (PC-3) | GI50 (SF-539) | GI50 (SN12C) | GI50 (SR) | GI50 (UACC-257) | GI50 (OVCAR-5) |
| --- | --- | --- | --- | --- | --- | --- | --- | --- | --- | --- | --- | --- | --- | --- | --- | --- | --- | --- | --- |
| CCN(CC)CCN(/C(=N/c1ccccc1)N1CCOCC1)c1ccccc1 | > 100 µM (inactive) | > 100 µM (inactive) | 39.4 µM (inactive) | > 100 µM (inactive) | 9.89 µM (inactive) | > 100 µM | 18.2 µM (inactive) | > 100 µM (inactive) | 89.3 µM (inactive) | > 100 µM (inactive) | > 100 µM (inactive) | 95.7 µM (inactive) | > 100 µM (inactive) | > 100 µM (inactive) | > 100 µM (inactive) | > 100 µM (inactive) | 50.6 µM (inactive) | > 100 µM (inactive) |  |
| CC(=O)OCCc1cc2ccccc2oc1=O | > 100 µM (inactive) | > 100 µM (inactive) | > 100 µM (inactive) | 86.7 µM (inactive) | > 100 µM (inactive) | > 100 µM | > 100 µM (inactive) | > 100 µM (inactive) | > 100 µM (inactive) | > 100 µM (inactive) | > 100 µM (inactive) | > 100 µM (inactive) | > 100 µM (inactive) | > 100 µM (inactive) | > 100 µM (inactive) | > 100 µM (inactive) | > 100 µM (inactive) | > 100 µM (inactive) | > 100 µM (inactive) |
| CCOC(=O)[C@H](CO)NC1=C(Cl)C(=O)c2c(O)ccc(O)c2C1=O | > 10 µM (inactive) | > 10 µM (inactive) | 3.87 µM (inactive) | > 10 µM (inactive) | > 10 µM (inactive) | > 10 µM | > 10 µM (inactive) | > 10 µM (inactive) | 3.21 µM (inactive) | > 10 µM (inactive) | > 10 µM (inactive) | > 10 µM (inactive) | > 10 µM (inactive) | > 10 µM (inactive) | > 10 µM (inactive) | > 10 µM (inactive) | 5.22 µM (inactive) | > 10 µM (inactive) | > 10 µM (inactive) |
| O=C(N/N=C/c1ccccc1O)c1ccccc1Nc1ccccc1C(=O)N/N=C/c1ccccc1O | 7.03 µM (inactive) | 0.931 µM (active) | 0.303 µM (active) | 0.398 µM (active) | 0.198 µM (active) | 0.329 µM | 1.69 µM (inactive) | 1.38 µM (inactive) | 0.583 µM (active) | 0.102 µM (active) | 0.403 µM (active) | 0.375 µM (active) | 0.647 µM (active) | 13.4 µM (inactive) | 2.19 µM (inactive) |  | 0.566 µM (active) | 2.97 µM (inactive) | > 100 µM (inactive) |
| CC(=O)Nc1cc([As](=O)(O)O)ccc1O [ACETARSONE] | > 100 µM (inactive) | > 100 µM (inactive) | > 100 µM (inactive) | > 100 µM (inactive) | > 100 µM (inactive) | > 100 µM | > 100 µM (inactive) | > 100 µM (inactive) | > 100 µM (inactive) | > 100 µM (inactive) | > 100 µM (inactive) | > 100 µM (inactive) | > 100 µM (inactive) | > 100 µM (inactive) | > 100 µM (inactive) | > 100 µM (inactive) | > 100 µM (inactive) | > 100 µM (inactive) | > 100 µM (inactive) |
| COc1ccc(NC(=S)NC(=O)c2ccc3c(c2)Sc2ccccc2O3)c([N+](=O)[O-])c1 | 37.1 µM (inactive) | 36.4 µM (inactive) | > 100 µM (inactive) |  | 28.9 µM (inactive) | 24 µM | 32.7 µM (inactive) | 60.1 µM (inactive) | 27.6 µM (inactive) | 34.4 µM (inactive) | > 100 µM (inactive) | 14.9 µM (inactive) | 31 µM (inactive) | 43.1 µM (inactive) | 24.9 µM (inactive) | 35.1 µM (inactive) | 28.8 µM (inactive) | 33.1 µM (inactive) | > 100 µM (inactive) |
| CC(=O)OCC1OC(n2c(-c3cccs3)c3c(c(C#N)c2=S)-c2ccccc2CC3)C(OC(C)=O)C(OC(C)=O)C1OC(C)=O (configuration not stated) | 11.7 µM (inactive) | 9.91 µM (inactive) | 9.35 µM (inactive) | 5.53 µM (inactive) | 7.67 µM (inactive) | 8.26 µM | 2.64 µM (inactive) | 9.14 µM (inactive) | 6.01 µM (inactive) | 4.48 µM (inactive) | 28.4 µM (inactive) | 5.32 µM (inactive) | 5.38 µM (inactive) | 9.04 µM (inactive) | 9.57 µM (inactive) | 20.2 µM (inactive) | 3.05 µM (inactive) | 12.8 µM (inactive) | 26.5 µM (inactive) |
| CCc1cccc(C(C)(C)C)c1NC(=S)N/C=C(/C#N)C(N)=O | 44.8 µM (inactive) | > 100 µM (inactive) | > 100 µM (inactive) | > 100 µM (inactive) | > 100 µM (inactive) | 62.4 µM | 93.1 µM (inactive) | > 100 µM (inactive) | > 100 µM (inactive) | > 100 µM (inactive) | > 100 µM (inactive) | > 100 µM (inactive) | > 100 µM (inactive) | > 100 µM (inactive) | > 100 µM (inactive) | > 100 µM (inactive) | > 10 µM (inactive) | > 100 µM (inactive) | > 100 µM (inactive) |
| CCCCc1ccc(Nc2nc(Cl)c3c(ncn3C3CC(Oc4ccc(C)cc4)C(COc4ccc(C)cc4)O3)n2)cc1 (configuration not stated) | > 100 µM (inactive) | > 100 µM (inactive) | > 100 µM (inactive) | > 100 µM (inactive) | > 100 µM (inactive) | > 100 µM | 87.7 µM (inactive) | > 100 µM (inactive) | 39.3 µM (inactive) | 33.9 µM (inactive) | > 100 µM (inactive) | > 100 µM (inactive) | > 100 µM (inactive) | > 100 µM (inactive) | 61 µM (inactive) | > 100 µM (inactive) | > 100 µM (inactive) | > 100 µM (inactive) | > 100 µM (inactive) |
| O=C(Nc1cnc(O)nc1O)Oc1ccccc1 | > 100 µM (inactive) | > 100 µM (inactive) | > 100 µM (inactive) | > 100 µM (inactive) | > 100 µM (inactive) | > 100 µM | 14.3 µM (inactive) | > 100 µM (inactive) | > 100 µM (inactive) | > 100 µM (inactive) | > 100 µM (inactive) | > 100 µM (inactive) | > 100 µM (inactive) | > 100 µM (inactive) | > 100 µM (inactive) | > 100 µM (inactive) | > 100 µM (inactive) | > 100 µM (inactive) | > 100 µM (inactive) |
| CC[N+](C)(CC)Cc1ccccc1[N+](=O)[O-] | 36 µM (inactive) | > 100 µM (inactive) | 46 µM (inactive) | 32.3 µM (inactive) | > 100 µM (inactive) | > 100 µM | > 100 µM (inactive) | > 100 µM (inactive) | > 100 µM (inactive) | > 100 µM (inactive) | 64.7 µM (inactive) | > 100 µM (inactive) | 39.8 µM (inactive) | 44.8 µM (inactive) | > 100 µM (inactive) | > 100 µM (inactive) | > 100 µM (inactive) | > 100 µM (inactive) | > 100 µM (inactive) |
| CN(C)/C=N\c1nncc2[nH]nnc12 | > 100 µM (inactive) | 26.7 µM (inactive) | > 100 µM (inactive) | > 100 µM (inactive) | > 100 µM (inactive) | > 100 µM | 5.97 µM (inactive) | > 100 µM (inactive) | > 100 µM (inactive) | 54.3 µM (inactive) | > 100 µM (inactive) |  | > 100 µM (inactive) | > 100 µM (inactive) | > 100 µM (inactive) | > 100 µM (inactive) | > 100 µM (inactive) | > 100 µM (inactive) | > 100 µM (inactive) |
| CC(=O)OCC1OC(Nn2c(=O)[nH]c3ccccc3c2=O)C(OC(C)=O)C(OC(C)=O)C1OC(C)=O (configuration not stated) | > 100 µM (inactive) | 40.2 µM (inactive) | > 100 µM (inactive) | > 100 µM (inactive) | > 100 µM (inactive) | > 100 µM | > 100 µM (inactive) | > 100 µM (inactive) | > 100 µM (inactive) | 97.7 µM (inactive) | > 100 µM (inactive) |  | > 100 µM (inactive) | > 100 µM (inactive) | > 100 µM (inactive) | > 100 µM (inactive) | > 100 µM (inactive) | 35.3 µM (inactive) | > 100 µM (inactive) |
| CC(C)N1CC2CN(Cc3ccccc3)CC(C1)C2=O | > 100 µM (inactive) | 89.1 µM (inactive) | > 100 µM (inactive) |  | > 100 µM (inactive) | > 100 µM | > 100 µM (inactive) | > 100 µM (inactive) | > 100 µM (inactive) | > 100 µM (inactive) | > 100 µM (inactive) | > 100 µM (inactive) | > 100 µM (inactive) | > 100 µM (inactive) | > 100 µM (inactive) | > 100 µM (inactive) | > 100 µM (inactive) | > 100 µM (inactive) | > 100 µM (inactive) |
| Cc1c2c3cc(O)ccc3nc-2n(C)c2ccccc12 | 1.92 µM (inactive) | 0.743 µM (active) |  | 2.58 µM (inactive) | 0.459 µM (active) | 1.81 µM | 2.34 µM (inactive) | 1.69 µM (inactive) | 2.21 µM (inactive) | 0.399 µM (active) | 2.86 µM (inactive) |  | 0.755 µM (active) | 1.75 µM (inactive) | 1.7 µM (inactive) | 0.875 µM (active) | 0.782 µM (active) | 2.69 µM (inactive) | 3.3 µM (inactive) |
